Assay [1] addresses Human ACC2 (Homo sapiens, UniProt O00763). The experiment in a line: In vitro ACC2 inhibition assay (ADP-Glo), human ACC2. The following applies: 5 nM ACC2, 20 μM ATP, 20 μM acetyl-CoA. Type of assay: biochemical. (ADP-Glo first removes unused ATP, then detects ADP through luciferase.)
The target of assay [2] is Fungal ACC2 (UniProt Q00955). The following applies: read-out: Fungal ACC2 (IC50, in vitro ACC2 inhibition).
The test system of assay [3] is C. albicans ATCC 90028. The experiment in a line: Anti-Fungal Activity Assay (broth microtiter MIC), C. albicans. To be noted: for MIC: Candida albicans, ATCC90028, 48 h, read-out: MIC C. albicans ATCC 90028. Type of assay: cell-based, Candida albicans. On the procedure: (§1) Compounds of the present invention were evaluated in an Anti-Fungal Activity Assay. An exemplary procedure for the assay, which measures the susceptibility of various Candida species to anti-fungal compounds, follows. Compounds to be tested (including fluconazole and amphotericin B) were dissolved in DMSO to obtain a solution having a concentration of 1 mg/mL. […] All species were grown from frozen stock by directly plating on to freshly prepared Sabouraud Dextrose agar (BD, Difco) and incubated overnight in ambient air at 35° C. for 24 h. A direct suspension was prepared in RPMI 1640+MOPS (Lonza, Biowhittaker) by taking individual colonies from the overnight cultures using sterile swabs soaked in sterile saline. The concentration of the suspension was determined using pre-determined standard curves. […] Broth microtiter MIC challenge plates were prepared following CLSI guidelines (M27-A3, Vol. 28 No. 14). The original CLSI guidelines focused on reading Candida MICs after 48 h of incubation. As reading after only 24 h offers a clear advantage of patient care, QC limits are being established for all drugs at 24 h. That being said there are no known interpretive breakpoints for amphotericin B at 24 h and the current fluconazole interpretive breakpoints are based on a 48 h reading. The MIC breakpoints for the test compounds were recorded at 48 h, and for the soraphen the 24 h time-point was added. All MIC determinations were achieved by visually comparing the growth found in the antibiotic challenged wells to that of the growth control.

Assay [4] deals with C. krusei ATCC 6258. Put plainly: Anti-Fungal Activity Assay (broth microtiter MIC), C. krusei. Type of assay: cell-based, Candida krusei. To be noted: for MIC: Pichia kudriavzevii, ATCC6258, 48 h, read-out: MIC C. krusei ATCC 6258. On the procedure:
as §1

Assay [5] concerns C. parapsilosis ATCC 22019. The experiment in a line: Anti-Fungal Activity Assay (broth microtiter MIC), C. parapsilosis. Format: cell-based, Candida parapsilosis. The following applies: for MIC: Lodderomyces parapsilosis, ATCC22019, 48 h, read-out: MIC C. parapsilosis ATCC 22019. On the procedure:
as §1

Setting [6] is: 3 replicates, MIC recorded at 48 h.

Molecules are shown by their SMILES. Converted amounts (≈) assume the structure as drawn. Where two headings read alike, the source gives them in different places. Where only a bound is given, the exact number is not on record here.

The term IC50 denotes the point on the concentration scale where inhibition reaches its midpoint. As a reminder, the MIC is the lowest concentration found to suppress growth.

Chain of Human ACC2 (O00763 whole entry): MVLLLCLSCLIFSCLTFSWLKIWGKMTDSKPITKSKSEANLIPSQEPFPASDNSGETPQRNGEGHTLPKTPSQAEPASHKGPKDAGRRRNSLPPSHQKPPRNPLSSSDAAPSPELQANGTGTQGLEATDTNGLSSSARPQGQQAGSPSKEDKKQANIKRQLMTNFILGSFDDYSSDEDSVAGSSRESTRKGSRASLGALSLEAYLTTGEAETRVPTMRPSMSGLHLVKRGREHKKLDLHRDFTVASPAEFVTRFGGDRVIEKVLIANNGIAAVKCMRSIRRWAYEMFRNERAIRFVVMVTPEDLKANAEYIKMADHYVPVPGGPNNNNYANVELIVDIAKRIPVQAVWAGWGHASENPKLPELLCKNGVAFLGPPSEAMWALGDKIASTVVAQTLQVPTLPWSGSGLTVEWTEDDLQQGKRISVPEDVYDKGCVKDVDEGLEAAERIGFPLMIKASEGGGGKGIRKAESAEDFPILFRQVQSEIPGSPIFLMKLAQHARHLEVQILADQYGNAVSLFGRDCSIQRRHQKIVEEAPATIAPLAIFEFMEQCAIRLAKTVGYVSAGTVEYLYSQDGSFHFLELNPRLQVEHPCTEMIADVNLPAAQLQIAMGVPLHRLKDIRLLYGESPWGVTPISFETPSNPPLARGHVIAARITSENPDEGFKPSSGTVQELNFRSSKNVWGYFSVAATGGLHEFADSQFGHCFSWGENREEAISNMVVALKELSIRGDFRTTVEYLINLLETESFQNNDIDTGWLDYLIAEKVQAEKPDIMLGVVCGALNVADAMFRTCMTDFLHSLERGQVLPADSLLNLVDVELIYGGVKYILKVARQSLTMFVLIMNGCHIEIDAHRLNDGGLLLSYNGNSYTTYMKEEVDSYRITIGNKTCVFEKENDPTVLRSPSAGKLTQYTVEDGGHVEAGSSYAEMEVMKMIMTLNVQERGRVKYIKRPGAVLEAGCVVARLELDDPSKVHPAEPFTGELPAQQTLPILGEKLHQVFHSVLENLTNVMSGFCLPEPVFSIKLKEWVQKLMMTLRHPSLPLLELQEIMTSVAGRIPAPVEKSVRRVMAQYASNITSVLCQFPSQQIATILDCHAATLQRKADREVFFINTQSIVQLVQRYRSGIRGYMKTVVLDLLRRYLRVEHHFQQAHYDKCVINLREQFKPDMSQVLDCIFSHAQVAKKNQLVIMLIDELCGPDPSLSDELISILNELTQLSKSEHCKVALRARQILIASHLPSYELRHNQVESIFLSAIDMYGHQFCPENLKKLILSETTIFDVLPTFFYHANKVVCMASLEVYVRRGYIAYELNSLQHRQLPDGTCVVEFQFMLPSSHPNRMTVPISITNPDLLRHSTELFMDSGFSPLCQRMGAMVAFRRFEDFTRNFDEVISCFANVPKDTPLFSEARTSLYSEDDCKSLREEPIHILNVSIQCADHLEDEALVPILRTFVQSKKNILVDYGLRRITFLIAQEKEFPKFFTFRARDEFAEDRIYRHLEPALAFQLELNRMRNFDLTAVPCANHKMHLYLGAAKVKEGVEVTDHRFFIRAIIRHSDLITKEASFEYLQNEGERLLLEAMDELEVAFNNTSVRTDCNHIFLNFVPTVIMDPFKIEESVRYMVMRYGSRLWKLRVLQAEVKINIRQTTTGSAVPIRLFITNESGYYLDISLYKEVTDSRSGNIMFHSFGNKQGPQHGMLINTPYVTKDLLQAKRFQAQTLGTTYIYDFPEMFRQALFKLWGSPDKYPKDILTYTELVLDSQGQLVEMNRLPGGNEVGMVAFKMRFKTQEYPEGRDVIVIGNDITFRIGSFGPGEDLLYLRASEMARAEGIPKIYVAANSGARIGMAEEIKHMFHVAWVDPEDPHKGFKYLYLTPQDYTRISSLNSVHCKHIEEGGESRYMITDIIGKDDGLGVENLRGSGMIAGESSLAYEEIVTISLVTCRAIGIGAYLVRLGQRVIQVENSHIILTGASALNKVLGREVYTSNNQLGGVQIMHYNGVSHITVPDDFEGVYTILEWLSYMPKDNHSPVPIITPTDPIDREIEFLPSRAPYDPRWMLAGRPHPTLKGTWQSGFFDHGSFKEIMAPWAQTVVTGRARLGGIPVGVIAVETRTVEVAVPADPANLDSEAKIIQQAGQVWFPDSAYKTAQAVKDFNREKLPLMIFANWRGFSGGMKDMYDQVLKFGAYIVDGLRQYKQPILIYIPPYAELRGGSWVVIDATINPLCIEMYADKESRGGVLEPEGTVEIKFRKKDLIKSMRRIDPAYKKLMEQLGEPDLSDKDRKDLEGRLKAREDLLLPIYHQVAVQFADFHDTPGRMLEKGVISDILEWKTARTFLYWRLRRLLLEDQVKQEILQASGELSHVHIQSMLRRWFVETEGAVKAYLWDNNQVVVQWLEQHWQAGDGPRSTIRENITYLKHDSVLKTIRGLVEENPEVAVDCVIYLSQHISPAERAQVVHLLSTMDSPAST
Chain of Fungal ACC2 (Q00955 whole entry): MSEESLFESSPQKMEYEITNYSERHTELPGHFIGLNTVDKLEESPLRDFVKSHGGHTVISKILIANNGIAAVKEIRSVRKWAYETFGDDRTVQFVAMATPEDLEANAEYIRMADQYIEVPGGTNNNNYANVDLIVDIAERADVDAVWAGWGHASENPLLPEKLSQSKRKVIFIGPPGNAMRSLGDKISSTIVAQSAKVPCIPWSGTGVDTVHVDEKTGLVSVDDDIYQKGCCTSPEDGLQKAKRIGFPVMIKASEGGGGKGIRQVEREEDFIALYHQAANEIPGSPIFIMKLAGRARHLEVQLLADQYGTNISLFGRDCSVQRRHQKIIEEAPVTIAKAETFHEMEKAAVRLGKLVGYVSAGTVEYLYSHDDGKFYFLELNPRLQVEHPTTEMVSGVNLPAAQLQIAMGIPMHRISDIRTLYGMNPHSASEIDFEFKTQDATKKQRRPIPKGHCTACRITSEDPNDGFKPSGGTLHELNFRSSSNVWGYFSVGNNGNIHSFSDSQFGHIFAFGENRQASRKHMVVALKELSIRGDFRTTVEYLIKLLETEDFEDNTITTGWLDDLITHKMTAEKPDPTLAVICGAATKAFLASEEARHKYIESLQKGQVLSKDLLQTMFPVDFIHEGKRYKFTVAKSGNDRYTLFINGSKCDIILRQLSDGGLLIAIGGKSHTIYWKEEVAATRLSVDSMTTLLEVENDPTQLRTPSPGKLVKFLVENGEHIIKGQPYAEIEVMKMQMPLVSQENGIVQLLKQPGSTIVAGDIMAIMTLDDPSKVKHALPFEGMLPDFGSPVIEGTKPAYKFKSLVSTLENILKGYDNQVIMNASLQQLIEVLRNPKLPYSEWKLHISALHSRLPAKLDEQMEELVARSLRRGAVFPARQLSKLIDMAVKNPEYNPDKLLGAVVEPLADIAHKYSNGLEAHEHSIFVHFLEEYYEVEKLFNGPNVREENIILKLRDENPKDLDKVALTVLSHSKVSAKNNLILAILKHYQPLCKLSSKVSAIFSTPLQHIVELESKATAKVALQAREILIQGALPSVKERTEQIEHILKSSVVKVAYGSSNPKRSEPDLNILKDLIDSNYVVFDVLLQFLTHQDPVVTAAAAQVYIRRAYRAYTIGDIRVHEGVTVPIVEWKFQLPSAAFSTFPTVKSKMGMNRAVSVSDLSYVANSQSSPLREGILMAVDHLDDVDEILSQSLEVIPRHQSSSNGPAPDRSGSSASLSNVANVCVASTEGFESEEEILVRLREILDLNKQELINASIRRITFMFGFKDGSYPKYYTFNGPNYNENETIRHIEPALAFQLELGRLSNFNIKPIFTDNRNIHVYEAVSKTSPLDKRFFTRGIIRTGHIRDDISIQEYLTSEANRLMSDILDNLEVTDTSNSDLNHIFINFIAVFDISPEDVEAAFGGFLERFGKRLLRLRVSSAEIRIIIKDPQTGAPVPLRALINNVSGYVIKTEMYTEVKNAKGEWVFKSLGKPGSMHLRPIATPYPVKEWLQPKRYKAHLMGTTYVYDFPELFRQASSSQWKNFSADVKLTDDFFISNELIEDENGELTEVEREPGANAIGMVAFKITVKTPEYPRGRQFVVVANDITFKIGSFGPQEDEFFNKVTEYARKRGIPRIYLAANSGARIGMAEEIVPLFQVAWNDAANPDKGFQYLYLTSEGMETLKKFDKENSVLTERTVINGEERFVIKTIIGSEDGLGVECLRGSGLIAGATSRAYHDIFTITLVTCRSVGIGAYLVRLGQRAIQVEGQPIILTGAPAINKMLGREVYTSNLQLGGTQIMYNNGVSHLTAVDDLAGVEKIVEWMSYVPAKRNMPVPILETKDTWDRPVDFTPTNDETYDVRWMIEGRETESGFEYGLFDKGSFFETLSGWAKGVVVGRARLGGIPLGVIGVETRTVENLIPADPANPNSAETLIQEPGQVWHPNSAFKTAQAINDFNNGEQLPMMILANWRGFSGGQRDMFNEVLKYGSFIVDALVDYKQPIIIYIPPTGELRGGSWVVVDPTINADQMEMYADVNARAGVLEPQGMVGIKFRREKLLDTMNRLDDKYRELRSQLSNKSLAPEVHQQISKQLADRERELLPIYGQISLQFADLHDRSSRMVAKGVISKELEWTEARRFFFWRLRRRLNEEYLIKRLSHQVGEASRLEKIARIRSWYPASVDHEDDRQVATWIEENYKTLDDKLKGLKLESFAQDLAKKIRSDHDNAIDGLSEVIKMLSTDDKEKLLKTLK

On to `COCCO[C@@H](Cn1c(=O)n(C2CCCN(C)C2=O)c(=O)c2c(C)c(-n3nccn3)sc21)c1cc(F)ccc1OC` (stereo partly drawn) [Compound I-14, 1-((R)-2-(5-fluoro-2-methoxyphenyl)-2-(2-methoxy-ethoxy)ethyl)-5-methyl-3-(1-methyl-2-oxopiperidin-3-yl)-6-(2H-1,2,3-triazol-2-yl)thieno[2,3-d]pyrimidine-2,4(1H,3H)-dione], for which the IC50 in assay [1] was in the range of 10 to 100 nM; in assay [2] it was 2 to 10 nM.

As for `COc1ccccc1[C@H](Cn1c(=O)n([C@H]2CCCNC2=O)c(=O)c2c(C)c(-c3ncco3)sc21)OCCO` [Compound I-60, 1-((R)-2-(2-hydroxyethoxy)-2-(2-methoxyphenyl)ethyl)-5-methyl-6-(oxazol-2-yl)-3-((S)-2-oxopiperidin-3-yl)thieno[2,3-d]pyrimidine-2,4(1H,3H)-dione], the IC50 in assay [1] was in the range of 10 to 100 nM; in assay [2], 0.7 to 2 nM.

`COc1ccc(F)cc1[C@H](Cn1c(=O)n([C@@H]2CCN(C(C)C)C2=O)c(=O)c2c(C)c(-n3nccn3)sc21)OC1CCOCC1` [Compound I-139, 1-((R)-2-(5-fluoro-2-methoxyphenyl)-2-((tetrahydro-2H-pyran-4-yl)oxy)ethyl)-3-((R)-1-isopropyl-2-oxopyrrolidin-3-yl)-5-methyl-6-(2H-1,2,3-triazol-2-yl)thieno[2,3-d]pyrimidine-2,4(1H,3H)-dione] showed an IC50 in assay [1] of 2 to 10 nM. In addition, the “MIC C. albicans ATCC 90028” value in assay [3] (setting [6]) is “C (provided an MIC of 2.1-4.0 μg/mL)”. Also, the “MIC C. krusei ATCC 6258” value in assay [4] (setting [6]) is on record as “B (provided an MIC of 1.1-2.0 μg/mL)”. Further, in assay [5] (setting [6]), the “MIC C. parapsilosis ATCC 22019” value is listed as “B (provided an MIC of 1.1-2.0 μg/mL)”.

On to `COCCO[C@@H](Cn1c(=O)n([C@]2(C)CCNC2=O)c(=O)c2c(C)c(-n3nccn3)sc21)c1cc(F)ccc1OC` [Compound I-140, 1-((R)-2-(5-fluoro-2-methoxyphenyl)-2-(2-methoxy-ethoxy)ethyl)-5-methyl-3-((R)-3-methyl-2-oxopyrrolidin-3-yl)-6-(2H-1,2,3-triazol-2-yl)thieno[2,3-d]pyrimidine-2,4(1H,3H)-dione], for which the IC50 in assay [1] and in assay [2] was greater than 1000 nM each time.

Consider `COCCO[C@@H](Cn1c(=O)n([C@@]2(C)CCNC2=O)c(=O)c2c(C)c(-n3nccn3)sc21)c1cc(F)ccc1OC` [Compound I-141, 1-((R)-2-(5-fluoro-2-methoxyphenyl)-2-(2-methoxyethoxy)ethyl)-5-methyl-3-((S)-3-methyl-2-oxopyrrolidin-3-yl)-6-(2H-1,2,3-triazol-2-yl)thieno[2,3-d]pyrimidine-2,4(1H,3H)-dione], for which the IC50 in assay [1] and in assay [2] was greater than 1000 nM each time.

For `COCCO[C@@H](Cn1c(=O)n([C@]2(C)CCN(C)C2=O)c(=O)c2c(C)c(-n3nccn3)sc21)c1cc(F)ccc1OC` [Compound I-146, 3-((R)-1,3-dimethyl-2-oxopyrrolidin-3-yl)-1-((R)-2-(5-fluoro-2-methoxyphenyl)-2-(2-methoxyethoxy)ethyl)-5-methyl-6-(2H-1,2,3-triazol-2-yl)thieno[2,3-d]pyrimidine-2,4(1H,3H)-dione], the IC50 in assay [1] and in assay [2] was greater than 1000 nM throughout.

For `COCCO[C@@H](Cn1c(=O)n([C@@]2(C)CCN(C)C2=O)c(=O)c2c(C)c(-n3nccn3)sc21)c1cc(F)ccc1OC` [Compound I-148, 3-((S)-1,3-dimethyl-2-oxopyrrolidin-3-yl)-1-((R)-2-(5-fluoro-2-methoxyphenyl)-2-(2-methoxyethoxy)ethyl)-5-methyl-6-(2H-1,2,3-triazol-2-yl)thieno[2,3-d]pyrimidine-24(1H,3H)-dione], the IC50 in assay [1] and in assay [2] was greater than 1000 nM throughout.

Take `CCN1CC[C@H](n2c(=O)c3c(C)c(-n4nccn4)sc3n(C[C@H](OC3CCOCC3)c3cc(F)ccc3OC)c2=O)C1=O` [Compound I-150, 3-((S)-1-ethyl-2-oxopyrrolidin-3-yl)-1-((R)-2-(5-fluoro-2-methoxyphenyl)-2-((tetrahydro-2H-pyran-4-yl)oxy)ethyl)-5-methyl-6-(2H-1,2,3-triazol-2-yl)thieno[2,3-d]pyrimidine-2,4(1H,3H)-dione]: the IC50 in assay [1] lay within 2 to 10 nM. The results for the MIC in assay [3] (setting [6]), in assay [4] (setting [6]) and in assay [5] (setting [6]) were 0.25 to 1 µg/mL (≈ 0.408 to 1.63 µM), 0.075 to 0.24 µg/mL (≈ 0.122 to 0.392 µM) and 0.25 to 1 µg/mL (≈ 0.408 to 1.63 µM), respectively.

On to `CCN1CC[C@@H](n2c(=O)c3c(C)c(-n4nccn4)sc3n(C[C@H](OC3CCOCC3)c3cc(F)ccc3OC)c2=O)C1=O` [Compound I-151], for which, in assay [1], the IC50 is 2 to 10 nM. Besides, the MIC in assay [3] (setting [6]) is 0.25 to 1 µg/mL (≈ 0.408 to 1.63 µM); in assay [4] (setting [6]) it was 0.075 to 0.24 µg/mL (≈ 0.122 to 0.392 µM); in assay [5] (setting [6]), 0.25 to 1 µg/mL (≈ 0.408 to 1.63 µM).

Consider `COCCO[C@@H](Cn1c(=O)n([C@@H]2CCN(C)C2=O)c(=O)c2c(C)c(-n3nccn3)sc21)c1cc(F)ccc1OCC#N` [Compound I-159, 2-(4-fluoro-2-((R)-1-(2-methoxyethoxy)-2-(5-methyl-3-((R)-1-methyl-2-oxopyrrolidin-3-yl)-2,4-dioxo-6-(2H2H-1,2,3-triazol-2-yl)-3,4-dihydrothieno[2,3-d]pyrimidin-1 (2H)-yl)ethyl)phenoxy)acetonitrile], for which the IC50 in assay [1] was greater than 1000 nM. Further, the MIC in assay [3], in assay [4] and in assay [5] was 2.1 to 4 µg/mL (≈ 3.51 to 6.69 µM) throughout.

Regarding `COCCO[C@@H](Cn1c(=O)n([C@H]2CCN(C)C2=O)c(=O)c2c(C)c(-n3nccn3)sc21)c1cc(F)ccc1OCC#N` [Compound I-160, 2-(4-fluoro-2-((R)-1-(2-methoxyethoxy)-2-(5-methyl-3-((S)-1-methyl-2-oxopyrrolidin-3-yl)-2,4-dioxo-6-(2H-1,2,3-triazol-2-yl)-3,4-dihydrothieno[2,3-d]pyrimidin-1(2H)-yl)ethyl)phenoxy)acetonitrile], the IC50 in assay [1] was in the range of 10 to 100 nM. Also, the minimum inhibitory concentration (MIC) in assay [3], in assay [4] and in assay [5] was 2.1 to 4 µg/mL (≈ 3.51 to 6.69 µM) throughout.

As for `COc1ccc(F)cc1[C@H](Cn1c(=O)n([C@@H]2CCN(C)C2=O)c(=O)c2c(C)c(-n3nccn3)sc21)O[C@H]1C[C@H](O)C1` [Compound I-185, 1-((R)-2-(5-fluoro-2-methoxyphenyl)-2-((1r,3R)-3-hydroxycyclobutoxy)ethyl)-5-methyl-3-((R)-1-methyl-2-oxopyrrolidin-3-yl)-6-(2H-1,2,3-triazol-2-yl)thieno[2,3-d]pyrimidine-2,4(1H,3H)-dione], the IC50 fell in the range of 2 to 10 nM in assay [1] and 0.7 to 2 nM in assay [2].

With `COc1ccc(F)cc1[C@H](Cn1c(=O)n([C@@H]2CCNC2=O)c(=O)c2c(C)c(-c3ncco3)sc21)O[C@H]1CC[C@@H](O)CC1` [Compound I-191, 1-((R)-2-(5-fluoro-2-methoxyphenyl)-2-(((1s, 4S)-4-hydroxycyclohexyl)oxy)ethyl)-5-methyl-6-(oxazol-2-yl)-3-((R)-2-oxopyrrolidin-3-yl)thieno[2,3-d]pyrimidine-2,4(1H,3H)-dione], the IC50 in assay [1] and in assay [2] was 0.7 to 2 nM in each case.

Consider `COc1ccc(F)cc1[C@H](Cn1c(=O)n([C@H]2CCNC2=O)c(=O)c2c(C)c(-c3ncco3)sc21)O[C@H]1CC[C@@H](O)CC1` [Compound I-192, 1-((R)-2-(5-fluoro-2-methoxyphenyl)-2-(((1 s, 4S)4-hydroxycyclohexyl)oxy)ethyl)-5-methyl-6-(oxazol-2-yl)-3-((S)-2-oxopyrrolidin-3-yl)thieno[2,3-d]pyrimidine-2,4(1H,3H)-dione], for which the IC50 lay within 2 to 10 nM in assay [1] and 0.7 to 2 nM in assay [2].

As for `COc1ccc(F)cc1[C@H](Cn1c(=O)n([C@@H]2CCN(C)C2=O)c(=O)c2c(C)c(-c3ncco3)sc21)O[C@H]1CC[C@@H](O)CC1` [Compound I-193, 1-((R)-2-(5-fluoro-2-methoxyphenyl)-2-(((1 s, 4S)-4-hydroxycyclohexyl)oxy)ethyl)-5-methyl-3-((R)-1-methyl-2-oxopyrrolidin-3-yl)-6-(oxazol-2-yl)thieno[2,3-d]pyrimidine-2,4(1H,3H)-dione], the 50% inhibitory concentration (IC50) fell in the range of 2 to 10 nM in assay [1] and 0.7 to 2 nM in assay [2].

For `COc1ccc(F)cc1[C@H](Cn1c(=O)n([C@H]2CCN(C)C2=O)c(=O)c2c(C)c(-c3ncco3)sc21)O[C@H]1CC[C@@H](O)CC1` [Compound I-194, 1-((R)-2-(5-fluoro-2-methoxyphenyl)-2-(((1 s, 4S)-4-hydroxycyclohexyl)oxy)ethyl)-5-methyl-3-((S)-1-methyl-2-oxopyrrolidin-3-yl)-6-(oxazol-2-yl)thieno[2,3-d]pyrimidine-2,4(1H,3H)-dione], the IC50 in assay [1] lay within 2 to 10 nM; in assay [2] it was 0.7 to 2 nM.

These data come from patent US20190330224A1, “ACC INHIBITORS AND USES THEREOF” (Gilead Apollo, LLC, priority 2015, published 2019).
